20 compounds from patent publication US10125129B2 (priority 2016, dated 2018) can be followed below.

In data set [1] the target is T1, μ opioid receptor (MOR) (Homo sapiens, UniProt P35372).
T1 construct: expressed in transfected cells
The data set can be described thus: cell-based. The class given is cell-based.

Data set [2] deals with mice. The data set is described as follows: Centrally mediated antinociceptive effects (tail-flick), i.p. doses, 10 s cutoff. Type of data set: in vivo.
Data set [3] has as its target T2, κ opioid receptor (KOR) (Homo sapiens, UniProt P41145).
T2 construct: expressed in transfected cells
The data set can be described thus: cell-based. Type of data set: cell-based.

Data set [4] relates to Sprague Dawley rats. The data set can be described thus: Conditioned place preference assay. Conditions: i.p.
In data set [5] the test system is mice. The data set is described as follows: Hot water tail-flick cumulative dose-response (s.c.). Conditions: Mus musculus, sc, 0.5 h, cumulative s.c. doses 1-30 mg/kg, latency 30 min after each dose. The class given is in vivo.
In data set [6] the test system is mice. The data set can be described thus: Hot water tail-flick tolerance evaluation, daily dosing. The class given is in vivo.

Entries after “also recorded” stand apart in the source; their conditions may differ. Like-named read-outs stand apart in the source and are kept apart here.

T2 sequence (P41145 whole entry): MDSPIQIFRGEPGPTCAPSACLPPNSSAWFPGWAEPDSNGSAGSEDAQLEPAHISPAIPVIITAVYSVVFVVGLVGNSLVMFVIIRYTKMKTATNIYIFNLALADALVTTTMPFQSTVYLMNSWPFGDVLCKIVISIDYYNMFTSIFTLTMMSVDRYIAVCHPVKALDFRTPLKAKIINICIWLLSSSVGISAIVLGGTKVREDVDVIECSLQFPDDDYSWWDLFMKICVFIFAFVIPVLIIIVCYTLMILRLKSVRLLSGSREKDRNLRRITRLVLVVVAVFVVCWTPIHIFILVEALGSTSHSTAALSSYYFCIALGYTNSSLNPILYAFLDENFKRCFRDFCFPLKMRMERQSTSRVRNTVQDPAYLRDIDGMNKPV
T1 sequence (P35372 whole entry): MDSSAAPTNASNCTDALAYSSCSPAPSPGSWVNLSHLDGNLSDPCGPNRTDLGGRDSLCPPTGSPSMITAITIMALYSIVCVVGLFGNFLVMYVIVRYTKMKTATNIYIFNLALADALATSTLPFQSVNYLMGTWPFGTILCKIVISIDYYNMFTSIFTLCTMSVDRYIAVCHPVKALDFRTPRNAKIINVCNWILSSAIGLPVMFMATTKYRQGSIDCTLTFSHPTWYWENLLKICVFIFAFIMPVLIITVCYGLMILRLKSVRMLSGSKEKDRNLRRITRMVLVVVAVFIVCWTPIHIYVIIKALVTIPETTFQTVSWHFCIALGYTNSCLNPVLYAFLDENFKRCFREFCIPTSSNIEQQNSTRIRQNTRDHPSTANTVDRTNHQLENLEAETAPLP

By melting point is commonly meant the temperature, or range, at which the solid turns liquid. One may read the EC50 as the concentration at which the effect is half-maximal. As for `COC(=O)[C@@H]1C=C(OC(=O)c2cccc(O)c2)C(=O)[C@H]2[C@@]1(C)CC[C@H]1C(=O)O[C@H](c3ccoc3)C[C@]21C` [Table 3 Entry 2, (2S,4aR,6aR,7R,10aR,10bR)-Methyl 2-(furan-3-yl)-9-((3-hydroxybenzoyl)oxy)-6a,10b-dimethyl-4,10-dioxo-2,4,4a,5,6,6a,7,10,10a,10bdecahydro-1H-benzo[f]isochromene-7-carboxylate], the melting point fell in the range of 124 to 126 °C. The same compound registered an EC50 in data set [1] (EC50) of 1.3 ± 0.3 nM.
Turning to `COC(=O)[C@@H]1C[C@H](OC(=O)c2ccccc2)C(=O)[C@H]2[C@@]1(C)CC[C@H]1C(=O)O[C@H](c3ccoc3)C[C@]21C` [Compound 2, herkinorin, reference compound], the antinociceptive effects entry in data set [2] (1, 5, and 10 mg/kg, i.p., 10 s cutoff) is on record as “no significant antinociceptive effects”. Also, the EC50 amounted to 170 ± 30 nM in data set [3] (read-out: EC50 ± SEM κ), 39 ± 4 nM in data set [1] (EC50 ± SEM μ) and 42 ± 4 nM in data set [1] (Series 1 EC50). For the same compound, the conditioned place preference result in data set [4] (5 mg/kg) is recorded as “Neither kurkinorin (5) nor herkinorin (2) were significantly different to vehicle”. Moreover, the “Selectivity μ/κ” value in data set [1] came out at 4.4. In addition, the “selectivity for the MOR over KOR” value in data set [1] was 4.4 fold.
Broadly, the ED50 is the dose that gives a 50% effect, or the effect in half of the subjects. Higher therefore signals a need for a large dose. In the case of `COC(=O)[C@@H]1C=C(OC(=O)c2ccccc2)C(=O)[C@H]2[C@@]1(C)CC[C@H]1C(=O)O[C@H](c3ccoc3)C[C@]21C` [Compound 5, (2S,4aR,6aR,6aR,10aR,10bR)-Methyl 2-(furan-3-yl)-9-((benzoyl)oxy)-6a,10b-dimethyl-4,10-dioxo-2,4,4a,5,6,6a,7,10,10a,10b-decahydro-1H-benzo[f]isochromene-7-carboxylate], the ED50 in data set [5] was 9.72 mg/kg. Moreover, in data set [2] (5 and 10 mg/kg i.p., similar to morphine at 10 mg/kg), the antinociceptive effects entry is listed as “significant antinociceptive effects”. Besides, the “antinociceptive effects over days of daily administration (tolerance)” value in data set [6] (7 mg/kg i.p. daily, days 1, 3, 5, 6, mice) is reported as “maintained antinociceptive efficacy from days 1-6”. In data set [6] (daily vehicle treated mice challenged on day 6), the “antinociceptive effects on day 6 challenge after daily vehicle” value is on record as “antinociceptive effects similar to day 1”. In data set [3], the EC50 was over 10000 nM and the “activity at the KOR” value is given as “no activity”. Moreover, in data set [4] (5 mg/kg), the conditioned place preference result was “Neither kurkinorin (5) nor herkinorin (2) were significantly different to vehicle”. Further, the conditioned place preference entry in data set [4] (10 mg/kg, listed as Kurkinorin) is “significant decrease in preference compared to morphine; also recorded: not significantly different form vehicle”.
Consider `COC(=O)[C@@H]1C[C@H](OC(=O)c2ccccc2C)C(=O)[C@H]2[C@@]1(C)CC[C@H]1C(=O)O[C@H](c3ccoc3)C[C@]21C` [Series 1 Entry 11, (2S,4aR,6aR,7R,9S,10aS,10bR)-Methyl 2-(furan-3-yl)-6a,10b-dimethyl-9-((2-methylbenzoyl)oxy)-4,10-dioxododecahydro-1H-benzo[f]isochromene-7-carboxylate], for which the EC50 in data set [1] (Series 1 EC50) came out at 1600 ± 400 nM.
The same measure, in the same setting: in the case of `COC(=O)[C@@H]1C[C@H](OC(=O)c2cccc(C)c2)C(=O)[C@H]2[C@@]1(C)CC[C@H]1C(=O)O[C@H](c3ccoc3)C[C@]21C` [Series 1 Entry 12, (2S,4aR,6aR,7R,9S,10aS,10bR)-Methyl 2-(furan-3-yl)-6a,10b-dimethyl-9-((3-methylbenzoyl)oxy)-4,10-dioxododecahydro-1H-benzo[f]isochromene-7-carboxylate] it was 1800 ± 300 nM.
Turning to `COC(=O)[C@@H]1C=C(OC(=O)c2ccc([N+](=O)[O-])cc2)C(=O)[C@H]2[C@@]1(C)CC[C@H]1C(=O)O[C@H](c3ccoc3)C[C@]21C` [Series 2 Entry 4, (2S,4aR,6aR,7R,10aR,10bR)-Methyl 2-(furan-3-yl)-6a,10b-dimethyl-9-((4-nitrobenzoyl)oxy)-4,10-dioxo-2,4,4a,5,6,6a,7,10,10a,10b-decahydro-1H-benzo[f]isochromene-7-carboxylate], the EC50 in data set [1] (read-out: Series 2 EC50) turned out to be 31 ± 2 nM.
In data set [1] (Series 2 EC50), `COC(=O)[C@@H]1C=C(OC(=O)c2ccccc2C)C(=O)[C@H]2[C@@]1(C)CC[C@H]1C(=O)O[C@H](c3ccoc3)C[C@]21C` [Series 2 Entry 11, (2S,4aR,6aR,7R,10aR,10bR)-Methyl 2-(furan-3-yl)-6a,10b-dimethyl-9-((2-methylbenzoyl)oxy)-4,10-dioxo-2,4,4a,5,6,6a,7,10,10a,10b-decahydro-1H-benzo[f]isochromene-7-carboxylate] yielded a concentration giving a half-maximal response (EC50) of 240 ± 40 nM.
With `COC(=O)[C@@H]1C=C(OC(=O)c2ccc(O)cc2)C(=O)[C@H]2[C@@]1(C)CC[C@H]1C(=O)O[C@H](c3ccoc3)C[C@]21C` [Table 3 Entry 3, (2S,4aR,6aR,7R,10aR,10bR)-Methyl 2-(furan-3-yl)-9-((4-hydroxybenzoyl)oxy)-6a,10b-dimethyl-4,10-dioxo-2,4,4a,5,6,6a,7,10,10a,10b-decahydro-1H-benzo[f]isochromene-7-carboxylate], the melting point lay in the range of 136 to 139 °C. The compound further had an EC50 in data set [1] (EC50) of 0.83 ± 0.04 nM.
In data set [1] (Series 2 EC50), `COC(=O)[C@@H]1C=C(OC(=O)c2ccccc2F)C(=O)[C@H]2[C@@]1(C)CC[C@H]1C(=O)O[C@H](c3ccoc3)C[C@]21C` [Series 2 Entry 8] yielded a concentration giving a half-maximal response (EC50) of 4.7 ± 0.4 nM.
Compound `COC(=O)[C@@H]1C[C@H](OC(=O)c2cccc(Cl)c2)C(=O)[C@H]2[C@@]1(C)CC[C@H]1C(=O)O[C@H](c3ccoc3)C[C@]21C` [Series 1 Entry 6, (2S,4aR,6aR,7R,9S,10aS,10bR)-Methyl 9-((3-chlorobenzoyl)oxy)-2-(furan-3-yl)-6a,10b-dimethyl-4,10-dioxododecahydro-1H-benzo[f]isochromene-7-carboxylate] came in with a 50% effective concentration (EC50) in data set [1] (Series 1 EC50) of 2400 ± 100 nM.
Compound `COC(=O)[C@@H]1C=C(OC(=O)CCc2ccccc2)C(=O)[C@H]2[C@@]1(C)CC[C@H]1C(=O)O[C@H](c3ccoc3)C[C@]21C` [Table 3 Entry 5, (2S,4aR,6aR,7R,10 aR,10bR)-Methyl 2-(furan-3-yl)-6a,10bdimethyl-4,10-dioxo-9-((3-phenylpropanoyl)oxy)-2,4,4a,5,6,6a,7,10,10a,10b-decahydro-1H-benzo[f]isochromene-7-carboxylate] displayed an EC50 in data set [1] (EC50) of 500 ± 200 nM.
On to `COC(=O)[C@@H]1C[C@H](OC(=O)c2ccc(F)cc2)C(=O)[C@H]2[C@@]1(C)CC[C@H]1C(=O)O[C@H](c3ccoc3)C[C@]21C` [Series 1 Entry 10, (2S,4aR,6aR,7R,9S,10aS,10bR)-Methyl 9-((4-fluorobenzoyl)oxy)-2-(furan-3-yl)-6a,10b-dimethyl-4,10-dioxododecahydro-1H-benzo[f]isochromene-7-carboxylate], for which the EC50 in data set [1] (Series 1 EC50) worked out at 800 ± 200 nM.
`COC(=O)[C@@H]1C=C(OC(=O)c2cccc([N+](=O)[O-])c2)C(=O)[C@H]2[C@@]1(C)CC[C@H]1C(=O)O[C@H](c3ccoc3)C[C@]21C` [Series 2 Entry 3, (2S,4aR,6aR,7R,10aR,10bR)-Methyl 2-(furan-3-yl)-6a,10b-dimethyl-9-((3-nitrobenzoyl)oxy)-4,10-dioxo-2,4,4a,5,6,6a,7,10,10a,10b-decahydro-1H-benzo[f]isochromene-7-carboxylate] displayed a 50% effective concentration (EC50) in data set [1] (Series 2 EC50) of 320 ± 10 nM.
In the case of `COC(=O)[C@@H]1C=C(OC(=O)c2ccncc2)C(=O)[C@H]2[C@@]1(C)CC[C@H]1C(=O)O[C@H](c3ccoc3)C[C@]21C` [Series 2 Entry 19, (2S,4aR,6aR,7R,10aR,10bR)-2-(Furan-3-yl)-7-(methoxycarbonyl)-6a,10b-dimethyl-4,10-dioxo-2,4,4a,5,6,6a,7,10,10a,10bdecahydro-1H-benzo[f]isochromen-9-yl isonicotinate], in data set [1] (Series 2 EC50), the 50% effective concentration (EC50) was determined as 6 ± 1 nM.
Regarding `COC(=O)[C@@H]1C[C@H](OC(=O)c2ccccc2OC)C(=O)[C@H]2[C@@]1(C)CC[C@H]1C(=O)O[C@H](c3ccoc3)C[C@]21C` [Series 1 Entry 14], the EC50 in data set [1] (Series 1 EC50) is 3300 ± 300 nM.
Still for that read-out and setting: in the case of `COC(=O)[C@@H]1C[C@H](OC(=O)c2cccc([N+](=O)[O-])c2)C(=O)[C@H]2[C@@]1(C)CC[C@H]1C(=O)O[C@H](c3ccoc3)C[C@]21C` [Series 1 Entry 3] it was 3500 ± 200 nM.
With `COC(=O)[C@@H]1C[C@H](NC(=O)c2ccccc2)C(=O)[C@H]2[C@@]1(C)CC[C@H]1C(=O)O[C@H](c3ccoc3)C[C@]21C` [Compound 3, reference compound], the values for the 50% effective concentration (EC50) in data set [3] and in data set [1] (EC50 ± SEM μ) were over 10000 nM and 3 ± 0.4 nM, respectively. For the same compound, the “Selectivity μ/κ” value in data set [1] is >3 000.
In data set [1] (Series 2 EC50), `COC(=O)[C@@H]1C=C(OC(=O)c2cccc(Cl)c2)C(=O)[C@H]2[C@@]1(C)CC[C@H]1C(=O)O[C@H](c3ccoc3)C[C@]21C` [Series 2 Entry 6, (2S,4aR,6aR,7R,10aR,10bR)-Methyl 9-((3-chlorobenzoyl)oxy)-2-(furan-3-yl)-6a,10b-dimethyl-4,10-dioxo-2,4,4a,5,6,6a,7,10,10a,10b-decahydro-1H-benzo[f]isochromene-7-carboxylate] returned a half-maximal effective concentration (EC50) of 250 ± 30 nM.
For `COC(=O)[C@@H]1C=C(OC(=O)c2cccc(F)c2)C(=O)[C@H]2[C@@]1(C)CC[C@H]1C(=O)O[C@H](c3ccoc3)C[C@]21C` [Series 2 Entry 9, (2S,4aR,6aR,7R,10aR,10bR)-Methyl 9-((3-fluorobenzoyl)oxy)-2-(furan-3-yl)-6a,10b-dimethyl-4,10-dioxo-2,4,4a,5,6,6a,7,10,10a,10b-decahydro-1H-benzo[f]isochromene-7-carboxylate], in data set [1] (Series 2 EC50), the EC50 was 15 ± 2 nM.
Regarding `COC(=O)[C@@H]1C[C@H](OC(=O)c2ccccn2)C(=O)[C@H]2[C@@]1(C)CC[C@H]1C(=O)O[C@H](c3ccoc3)C[C@]21C` [Series 1 Entry 17, (2S,4aR,6aR,7R,9S,10aS,10bR)-2-(furan-3-yl)-7-(methoxycarbonyl)-6a,10b-dimethyl-4,10-dioxododecahydro-2H-benzo[f]isochromen-9-yl picolinate], the EC50 in data set [1] (Series 1 EC50) is over 50000 nM.
